According to PMC6895199, “A new antiviral scaffold for human norovirus identified with computer-aided approaches on the viral polymerase” (Scientific Reports, 2019):

Key:
[1] = Cytotoxicity by the MTS method on uninfected cells; type: cell-based; conditions: mouse, uninfected RAW 264.7 cells
Method: Cytotoxicity: The cytotoxicity of the Compounds was evaluated by the MTS method, by exposing uninfected cells to the same concentrations of compounds for 3 days. The %cell viability was calculated as (ODtreated/ODCC) × 100, where ODCC is the OD of uninfected untreated cells and ODtreated are uninfected cells treated with compound. The CC50 was defined as the compound concentration that reduces the number of viable cells by 50%[34].

HuNoV (GII.4) RdRp = HuNoV (GII.4) RdRp (Norovirus Hu/GII.4/Sydney/NSW0514/2012/AU, UniProt K4L8Z7); experiment: Quantitative fluorescent RdRp activity assay (PicoGreen, poly(C) template); type: biochemical, human norovirus Sydney 2012; conditions: for inhibition at 20 µM: read-out: inhibition of HuNoV RdRp activity at fixed concentration; for IC50: HuNoV (GII.4) RdRp activity, six concentrations 0.1–100 µM, mean ± SD
Method: The newly synthesised compounds, including the carboxylate ester derivatives 34–35 and 7 from the Core Hopping approach, were evaluated for their enzymatic inhibition of human norovirus Sydney 2012 (HuNoV (GII.4)) RdRp activity in vitro, using a quantitative fluorescent assay. Compounds were tested at six different concentrations (concentration range examined: 0.1–100 µM) and compared to the relative activity of mock treated samples containing the vehicle only (0.5% DMSO [vol/vol]). PPNDS [Pyridoxal-5′-phosphate-6-(2′-naphthylazo-6′-nitro-4′,8′-disulfonate) tetrasodium salt], a previously reported potent inhibitor of NoV RdRp activity, and 1 were used as positive controls. Dose-dependent inhibitory response curves were used to establish IC50 values for the eight test compounds, as reported in Table 1 (see also Supplementary Fig. S1).
The newly prepared compounds 48–60 were initially evaluated against norovirus Sydney 2012 RdRp activity in vitro using a quantitative fluorescent assay. Compounds were tested at a fixed concentration of 20 µM and compared to the relative activity of mock treated samples. PPNDS and 1 were used as positive controls. […] These two rings are structural features present in 1 and in one of its derivatives we have previously reported. […] From these observations, the thiophene ring appears not to influence inhibitory activity. Derivatives in which the central core of 48 has been used to link the two terminal hydrophobic rings of 1 or of its derivatives we have previously reported[25] (55, 57, 58) appear to retain the RdRp inhibitory activity found for 48 (~20% at 20 µM). A similar effect is obtained when a sulfonyl group, as in our hit 1, is used to link ring 2, regardless if it is a thiazole (59) or an unsubstituted phenyl ring (60), to the rest of the molecule. […] Overall, even if showing a reduced biochemical activity in comparison with 1, some of the new derivatives can be considered as modest HuNoV RdRp inhibitors at 20 µM.
Fluorescent RdRp activity assays were carried out as previously described[12],[29]. Briefly, RdRp activity was quantified by monitoring the formation of double-stranded RNA (dsRNA) from a single stranded homopolymeric template, poly(C) (Sigma Aldrich), using the fluorescent dye PicoGreen (Life Technologies, Carlsbad, CA, USA). RdRp assays were performed in 384-well plates, and each reaction mixture contained 400 ng enzyme, 45 μM GTP, 10 ng/μL poly(C) RNA, 2.5 mM MnCl2, 5 mM dithiothreitol, (DTT), 0.01% bovine serum albumin (BSA), and 0.005% Tween 20 in 20 mM Tris-HCl, pH 7.5, with a final reaction volume of 25 μL. The PPNDS and compound 1 were used as a positive controls. RdRps were incubated for 10 mins at 30 °C in the presence of the test compounds or the compound vehicle DMSO (0.5% vol/vol) before addition into the reaction mixture, which was then allowed to run 15 min at 30 °C then terminated with 10 mM EDTA, followed by PicoGreen staining and dsRNA quantitation. GraphPad Prism V6.05 (La Jolla, CA, USA) was used to plot the IC50 values. A secondary gel-based polymerase activity assay was used as a counter-screen as described below, to exclude the possibility of RdRp activity enhancement. Primed elongation activity was examined in a gel-based assay as previously described[12],[29] using the RNA template (PE44-NoV). Gels were imaged using BioRad (Hercules, CA, U.SA) Geldoc Universal Hood II, running BioRad Image Lab software, V4.1, build 16.

MNV = MNV CPE reduction assay (MTS) in RAW 264.7 cells; type: cell-based, mouse norovirus (MNV-1.CW1); conditions: Norovirus, RAW264.7, in Mus musculus
Method: The newly prepared compounds 2–7 and 34–35 were evaluated for their antiviral effect against the genogroup V mouse norovirus (MNV) using the mouse macrophage cell line RAW264.7. This assay evaluates the ability of the compounds to protect infected cells from the virus-induced cytopathic effect, thus being suitable to identify inhibition of virus replication at every step of the virus life cycle, and representing a robust cellular assay available for the rapid evaluation of potential norovirus inhibitors. Compounds identified using MNV have shown effects against HuNoV in vitro and in vivo, as in the case of nucleoside RdRp inhibitor 2′-C-methylcytidine (2CMC)[34]–[36]. Unfortunately, despite not presenting the aqueous solubility issues we had previously encountered for 1[29], no significant antiviral effect could be observed in this assay for the new compounds up to the maximum concentration tested. The new structural modifications, despite retaining inhibition of the RdRp in an isolated enzyme activity assay and showing no cytotoxic effects at the test concentrations in the MNV antiviral assay (Supplementary Table S1), are correlated with a lack of antiviral activity. As these new structures present the same limitation of most non-nucleoside HuNoV polymerase inhibitors reported so far[22], we were prompted to apply a different computer-aided strategy to further modify the scaffold of 1, with the aim to achieve an antiviral effect in cellular systems. […]
Since the main scope of this work was to find new norovirus inhibitors which show antiviral effects against both the HuNoV RdRp and in norovirus-infected cells, priority was given to the evaluation of most of the new molecules for their antiviral activity against MNV in infected RAW cells. The nucleoside 2′-C-methylcytidine was used as positive control. The test compounds were evaluated at eight different concentrations (range 0.6–100 µM) and their ability to reduce the virus-induced cytopathic effect was assessed.
Cells and virus: MNV (virus strain MNV-1.CW1) was propagated in RAW 264.7 cells grown in DMEM (Life Technologies, Gent, Belgium) supplemented with 10% or 2% FBS, 2 mM L-glutamine, 20 mM HEPES, 0.075 g/L sodium bicarbonate, 1 mM sodium pyruvate, 100 U penicillin/mL and 100 µg/mL streptomycin at 37 °C in a humidified atmosphere of 5% CO2. The human norovirus GI.1 replicon harboring gastric tumor-1 cell line (HGT-NV) (kindly provided by Dr. Ian Goodfellow, University of Cambridge) was maintained in DMEM supplemented with 10% FBS, 2mM L-glutamine, 0.075 g/L sodium bicarbonate and 1.0 mg/ml of Geneticin (G418; Life Technologies), at 37 °C in a humidified atmosphere of 5% CO2[34].
Antiviral assay with MNV: The antiviral activity of the Compounds was determined using an MTS [3-(4,5-dimethylthiazol-2-yl)-5-(3-carboxymethoxyphenyl)-2-(4-sulfophenyl)-2H-tetrazolium]-based cytopathic effect (CPE) reduction assay. […] Then, a MTS-phenazinemethosulfate (MTS/PMS) stock solution [(2 mg/mL MTS (Promega, Leiden, The Netherlands) and 46 µg/mL PMS (Sigma–Aldrich, Bornem, Belgium) in PBS at pH 6–6.5)] was diluted 1/20 in MEM (Life Technologies, Gent, Belgium) and 75 µL were added to each well. After 2 h, the optical density (OD) was read at 498 nm. The %CPE reduction was calculated as [(ODtreated)MNV − ODVC]/[ODCC − ODVC] × 100, where ODCC represents the OD of the uninfected untreated cells, whereas ODVC and (ODtreated)MNV represent the OD of infected untreated cells and virus-infected cells treated with a compound concentration, respectively. The 50% effective concentration (EC50) was defined as the compound concentration that protected 50% of the cells from virus-induced CPE[34].

[2] = Table 2, at least three independent experiments
[3] = Table 2, RAW 264.7, range 0.6–100 µM, at least three independent experiments
[4] = Supplementary Table S1, at least two independent experiments

| SMILES | CC50 at 3 days [1, 2] [µM] | inhibition at 20 µM (HuNoV (GII.4) RdRp) [%] | EC50 (MNV; [3]) [µM] | CC50 at 3 days [1, 4] [µM] | EC50 (MNV; [4]) [µM] | further results |
| --- | --- | --- | --- | --- | --- | --- |
| O=C(NC(=S)Nc1ccc(N2CCN(C(=O)c3ccccc3)CC2)cc1)c1sc2ccccc2c1Cl [Compound 54, N-((4-(4-Benzoylpiperazin-1-yl)phenyl)carbamothioyl)-3-chlorobenzo[b]thiophene-2-carboxamide] | 4.5 ± 0.7 | ≤ 60 | > 100 | – | – | – |
| O=C1NN(c2ccc(C(=O)O)cc2)C(=O)/C1=C/c1ccc(-c2ccc(S(=O)(=O)Nc3ccccc3)cc2)o1 [Compound 2, (E)-4-(3,5-dioxo-4-((5-(4-(N-phenylsulfamoyl)phenyl)furan-2-yl)methylene)pyrazolidin-1-yl)benzoic acid] | – | – | – | > 100 | > 100 | IC50 (HuNoV (GII.4) RdRp): 17.2 ± 2.4 µM |
| O=C(NC(=S)Nc1ccc(N2CCN(C(=O)c3cccs3)CC2)cc1)c1ccccc1 [Compound 51, N-((4-(4-(Thiophene-2-carbonyl)piperazin-1-yl)phenyl)carbamothioyl)benzamide] | – | ~15 | – | – | – | – |
| C[C@@]1(O)[C@H](O)[C@@H](CO)O[C@H]1n1ccc(N)nc1=O [Compound 2CMC, 2′-C-methylcytidine, reference compound] | 16 ± 2 | – | 2 ± 1 | – | – | – |
| O=C(Nc1ccc(N2CCN(C(=O)c3cccs3)CC2)cc1)c1ccccc1 [Compound 73, N-(4-(4-(thiophene-2-carbonyl)piperazin-1-yl)phenyl)benzamide] | – | ~40 | – | – | – | – |
| Cc1ccc(C(=O)NC(=S)Nc2ccc(N3CCN(C(=O)c4ccccc4)CC3)cc2)cc1 [Compound 57, N-((4-(4-Benzoylpiperazin-1-yl)phenyl)carbamothioyl)-4-methylbenzamide] | > 100 | ~20 | > 100 | – | – | – |
| O=C(NC(=S)Nc1ccc(N2CCN(C(=O)c3ccccc3)CC2)cc1)c1ccccc1 [Compound 55, N-((4-(4-Benzoylpiperazin-1-yl)phenyl)carbamothioyl)benzamide] | 61.9 | ~20 | > 100 | – | – | – |
| O=C1NN(c2ccccc2)C(=O)/C1=C/c1ccc(-c2ccc(S(=O)(=O)Nc3nc4ccccc4[nH]3)cc2)o1 [Compound 6, (E)-N-(1H-benzo[d]imidazol-2-yl)-4-(5-((3,5-dioxo-1-phenylpyrazolidin-4-ylidene)methyl)furan-2-yl)benzenesulfonamide] | – | – | – | > 100 | 89 ± 2 | IC50 (HuNoV (GII.4) RdRp): 26.7 ± 2 µM |
| O=C(NC(=S)Nc1ccc(N2CCN(C(=O)c3cccs3)CC2)cc1)c1cc2ccccc2s1 [Compound 49, N-((4-(4-(Thiophene-2-carbonyl)piperazin-1-yl)phenyl)carbamothioyl)benzo[b]thiophene-2-carboxamide] | > 100 | 15 to 20 | > 100 | – | – | – |
| O=C(NC(=S)Nc1ccc(N2CCN(C(=O)c3cccs3)CC2)cc1)c1sc2ccccc2c1C(F)(F)F [Compound 50, N-((4-(4-(Thiophene-2-carbonyl)piperazin-1-yl)phenyl)carbamothioyl)-3-(trifluoromethyl)benzo[b] thiophene-2-carboxamide] | – | 15 to 20 | – | – | – | – |
| O=C1NN(c2ccccc2)C(=O)/C1=C/c1ccc(-c2ccc(S(=O)(=O)Nc3ncco3)cc2)o1 [Compound 5, (E)-4-(5-((3,5-dioxo-1-phenylpyrazolidin-4-ylidene)methyl)furan-2-yl)-N-(oxazol-2-yl)benzenesulfonamide] | – | – | – | > 100 | > 100 | IC50 (HuNoV (GII.4) RdRp): 12.8 ± 2.6 µM |
| O=C(NC(=S)Nc1ccc(N2CCN(C(=O)c3nccs3)CC2)cc1)c1ccccc1 [Compound 58, N-((4-(4-(Thiazole-2-carbonyl)piperazin-1-yl)phenyl)carbamothioyl)benzamide] | – | ~20 | – | – | – | – |
| CCOC(=O)c1cccc(N2NC(=O)/C(=C\c3ccc(-c4ccc(S(=O)(=O)Nc5ccccc5)cc4)o3)C2=O)c1 [Compound 35, Ethyl(E)-3-(3,5-dioxo-4-((5-(4-(N-phenylsulfamoyl)phenyl)furan-2-yl)methylene)pyrazolidin-1-yl)benzoate] | – | – | – | > 100 | > 100 | IC50 (HuNoV (GII.4) RdRp): 18.9 ± 3.1 µM |
| O=C1NN(c2ccccc2)C(=O)/C1=C/c1ccc(-c2ccc(S(=O)(=O)Nc3ncccn3)cc2)o1 [Compound 4, (E)-4-(5-((3,5-dioxo-1-phenylpyrazolidin-4-ylidene)methyl)furan-2-yl)-N-(pyrimidin-2-yl)benzenesulfonamide] | – | – | – | 60 ± 21 | > 50 | inhibition at 100 µM (HuNoV (GII.4) RdRp; 100 µM, read-out: inhibition of RdRp activity at the maximum concentration tested): 15% |
